From PubChem BioAssay AID504630 (Southern Research Specialized Biocontainment Screening …, 2011)

Tested on: human PBMC cytotoxicity, % cell control
Test: PBMC viability reduction by test compounds – cell-based, human PBMC, set 3, cytotoxicity control for HIV-1 antiviral project, dose response (AID 504630)

**Q.** Cc1c2c(=O)n(-c3nc4ccccc4s3)nc-2cc(O)n1Cc1ccccc1 was tested. Which TC50 did it give?
**A.** 13.2 µM
